# What was measured:
# Experiment in all cases: relative viability (nuclei count vs DMSO), 5 days (fraction); higher = more cells survive
# NCI-H2228 = test system: NCI-H2228
# Method in brief: (§1)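 Each reported value is a median over duplicate plates. It expresses relative viability: treated-well nuclei count divided by vehicle-well nuclei count. Lung cancer cell lines in 1536-well plates were dosed by pin tool a day after seeding, alone with one drug or with a fixed anchor-drug dose plus five library-drug doses (not always all listed) in √10 steps, and nuclei were counted after 5 days.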
# NCI-H1944 = test system: NCI-H1944
# Method in brief: as §1
# HCC-366 = test system: HCC-366
# Method in brief: as §1
# NCI-H2405 = test system: NCI-H2405
# Method in brief: as §1
# NCI-H1793 = test system: NCI-H1793
# Method in brief: as §1
# NCI-H1755 = test system: NCI-H1755
# Method in brief: as §1
# NCI-H460 = test system: NCI-H460
# Method in brief: as §1
# NCI-H3122 = test system: NCI-H3122
# Method in brief: as §1
# LU99A = test system: LU99A
# Method in brief: as §1
# NCI-H1395 = test system: NCI-H1395
# Method in brief: as §1
# LOU-NH91 = test system: LOU-NH91
# Method in brief: as §1
# UMC-11 = test system: UMC-11
# Method in brief: as §1
# NCI-H2087 = test system: NCI-H2087
# Method in brief: as §1
# NCI-H1651 = test system: NCI-H1651
# Method in brief: as §1
# ABC-1 = test system: ABC-1
# Method in brief: as §1
# CAL-12T = test system: CAL-12T
# Method in brief: as §1
# NCI-H2170 = test system: NCI-H2170
# Method in brief: as §1
# HCC-78 = test system: HCC-78
# Method in brief: as §1
# ChaGo-K-1 = test system: ChaGo-K-1
# Method in brief: as §1
# RERF-LC-KJ = test system: RERF-LC-KJ
# Method in brief: as §1
# PC-3 [JPC-3] = test system: PC-3 [JPC-3]
# Method in brief: as §1
# LC-2-ad = test system: LC-2-ad
# Method in brief: as §1
smiles,measurement,setting,value
O=c1cc(N2CCOCC2)oc2c(-c3cccc4c3sc3ccccc34)cccc12 + COc1cccc2cc(-c3nc([C@H]4CC[C@H](C(=O)O)CC4)n4ncnc(N)c34)[nH]c12 [OSI-027] (partner 0.5 µM),relative viability,NCI-H2228; first compound 0.01 µM,0.677
same,relative viability,NCI-H2228; first compound 0.03162 µM,0.775
same,relative viability,NCI-H2228; first compound 0.1 µM,0.558
same,relative viability,NCI-H2228; first compound 0.3162 µM,0.605
same,relative viability,NCI-H2228; first compound 1 µM,0.548
same,relative viability,NCI-H1944; first compound 0.01 µM,0.443
same,relative viability,NCI-H1944; first compound 0.03162 µM,0.436
same,relative viability,NCI-H1944; first compound 0.1 µM,0.429
same,relative viability,NCI-H1944; first compound 0.3162 µM,0.44
same,relative viability,NCI-H1944; first compound 1 µM,0.391
same,relative viability,HCC-366; first compound 0.01 µM,1
same,relative viability,HCC-366; first compound 0.03162 µM,1.38
same,relative viability,HCC-366; first compound 0.1 µM,1.12
same,relative viability,HCC-366; first compound 0.3162 µM,0.928
same,relative viability,HCC-366; first compound 1 µM,0.955
same,relative viability,NCI-H2405; first compound 0.01 µM,0.717
same,relative viability,NCI-H2405; first compound 0.03162 µM,0.615
same,relative viability,NCI-H2405; first compound 0.1 µM,0.564
same,relative viability,NCI-H2405; first compound 0.3162 µM,0.663
same,relative viability,NCI-H2405; first compound 1 µM,0.685
same,relative viability,NCI-H1793; first compound 0.01 µM,0.33
same,relative viability,NCI-H1793; first compound 0.1 µM,0.287
same,relative viability,NCI-H1793; first compound 0.3162 µM,0.251
same,relative viability,NCI-H1793; first compound 1 µM,0.247
same,relative viability,NCI-H1755; first compound 0.01 µM,0.785
same,relative viability,NCI-H1755; first compound 0.03162 µM,0.691
same,relative viability,NCI-H1755; first compound 0.1 µM,0.783
same,relative viability,NCI-H1755; first compound 0.3162 µM,0.673
same,relative viability,NCI-H1755; first compound 1 µM,0.685
same,relative viability,NCI-H460; first compound 0.01 µM,0.659
same,relative viability,NCI-H460; first compound 0.03162 µM,0.717
same,relative viability,NCI-H460; first compound 0.1 µM,0.683
same,relative viability,NCI-H460; first compound 0.3162 µM,0.68
same,relative viability,NCI-H460; first compound 1 µM,0.653
same,relative viability,NCI-H3122; first compound 0.01 µM,1.02
same,relative viability,NCI-H3122; first compound 0.03162 µM,0.911
same,relative viability,NCI-H3122; first compound 0.1 µM,0.907
same,relative viability,NCI-H3122; first compound 0.3162 µM,0.987
same,relative viability,NCI-H3122; first compound 1 µM,0.934
same,relative viability,LU99A; first compound 0.01 µM,0.277
same,relative viability,LU99A; first compound 0.03162 µM,0.337
same,relative viability,LU99A; first compound 0.1 µM,0.323
same,relative viability,LU99A; first compound 0.3162 µM,0.311
same,relative viability,LU99A; first compound 1 µM,0.347
same,relative viability,NCI-H1395; first compound 0.01 µM,0.574
same,relative viability,NCI-H1395; first compound 0.03162 µM,0.695
same,relative viability,NCI-H1395; first compound 0.1 µM,0.488
same,relative viability,NCI-H1395; first compound 0.3162 µM,0.68
same,relative viability,NCI-H1395; first compound 1 µM,0.707
same,relative viability,LOU-NH91; first compound 0.01 µM,0.68
same,relative viability,LOU-NH91; first compound 0.03162 µM,0.754
same,relative viability,LOU-NH91; first compound 0.1 µM,0.728
same,relative viability,LOU-NH91; first compound 0.3162 µM,0.779
same,relative viability,LOU-NH91; first compound 1 µM,0.702
same,relative viability,UMC-11; first compound 0.01 µM,0.472
same,relative viability,UMC-11; first compound 0.03162 µM,0.507
same,relative viability,UMC-11; first compound 0.1 µM,0.496
same,relative viability,UMC-11; first compound 0.3162 µM,0.526
same,relative viability,UMC-11; first compound 1 µM,0.45
same,relative viability,NCI-H2087; first compound 0.01 µM,0.569
same,relative viability,NCI-H2087; first compound 0.03162 µM,0.637
same,relative viability,NCI-H2087; first compound 0.1 µM,0.544
same,relative viability,NCI-H2087; first compound 0.3162 µM,0.416
same,relative viability,NCI-H2087; first compound 1 µM,0.599
same,relative viability,NCI-H1651; first compound 0.01 µM,0.593
same,relative viability,NCI-H1651; first compound 0.03162 µM,0.704
same,relative viability,NCI-H1651; first compound 0.1 µM,0.668
same,relative viability,NCI-H1651; first compound 0.3162 µM,0.654
same,relative viability,NCI-H1651; first compound 1 µM,0.636
same,relative viability,ABC-1; first compound 0.01 µM,0.483
same,relative viability,ABC-1; first compound 0.03162 µM,0.436
same,relative viability,ABC-1; first compound 0.1 µM,0.557
same,relative viability,ABC-1; first compound 0.3162 µM,0.523
same,relative viability,ABC-1; first compound 1 µM,0.501
same,relative viability,CAL-12T; first compound 0.01 µM,0.69
same,relative viability,CAL-12T; first compound 0.03162 µM,0.71
same,relative viability,CAL-12T; first compound 0.1 µM,0.599
same,relative viability,CAL-12T; first compound 0.3162 µM,0.728
same,relative viability,CAL-12T; first compound 1 µM,0.707
same,relative viability,NCI-H2170; first compound 0.01 µM,0.716
same,relative viability,NCI-H2170; first compound 0.03162 µM,0.845
same,relative viability,NCI-H2170; first compound 0.1 µM,0.716
same,relative viability,NCI-H2170; first compound 0.3162 µM,0.716
same,relative viability,NCI-H2170; first compound 1 µM,0.716
same,relative viability,HCC-78; first compound 0.01 µM,0.369
same,relative viability,HCC-78; first compound 0.03162 µM,0.362
same,relative viability,HCC-78; first compound 0.1 µM,0.297
same,relative viability,HCC-78; first compound 0.3162 µM,0.347
same,relative viability,HCC-78; first compound 1 µM,0.342
same,relative viability,ChaGo-K-1; first compound 0.01 µM,0.488
same,relative viability,ChaGo-K-1; first compound 0.03162 µM,0.681
same,relative viability,ChaGo-K-1; first compound 0.1 µM,0.363
same,relative viability,ChaGo-K-1; first compound 0.3162 µM,0.706
same,relative viability,ChaGo-K-1; first compound 1 µM,0.628
same,relative viability,RERF-LC-KJ; first compound 0.01 µM,0.617
same,relative viability,RERF-LC-KJ; first compound 0.03162 µM,0.635
same,relative viability,RERF-LC-KJ; first compound 0.1 µM,0.6
same,relative viability,RERF-LC-KJ; first compound 0.3162 µM,0.615
same,relative viability,RERF-LC-KJ; first compound 1 µM,0.555
same,relative viability,PC-3 [JPC-3]; first compound 0.01 µM,0.762
same,relative viability,PC-3 [JPC-3]; first compound 0.03162 µM,0.768
same,relative viability,PC-3 [JPC-3]; first compound 0.1 µM,0.644
same,relative viability,PC-3 [JPC-3]; first compound 0.3162 µM,0.738
same,relative viability,PC-3 [JPC-3]; first compound 1 µM,0.825
same,relative viability,LC-2-ad; first compound 0.01 µM,0.903
same,relative viability,LC-2-ad; first compound 0.03162 µM,0.993
same,relative viability,LC-2-ad; first compound 0.1 µM,0.877
same,relative viability,LC-2-ad; first compound 0.3162 µM,0.915
same,relative viability,LC-2-ad; first compound 1 µM,0.785

# Source: the supplement of paper PMC10307832
